Legend:
[1] = biological target: T1, panel of 442 kinases (Homo sapiens, UniProt O95382); format: binding; conditions: Compound Concentration 10 µM
T1 construct: purchased KINOMEscan
T1 sequence (O95382 1-1288): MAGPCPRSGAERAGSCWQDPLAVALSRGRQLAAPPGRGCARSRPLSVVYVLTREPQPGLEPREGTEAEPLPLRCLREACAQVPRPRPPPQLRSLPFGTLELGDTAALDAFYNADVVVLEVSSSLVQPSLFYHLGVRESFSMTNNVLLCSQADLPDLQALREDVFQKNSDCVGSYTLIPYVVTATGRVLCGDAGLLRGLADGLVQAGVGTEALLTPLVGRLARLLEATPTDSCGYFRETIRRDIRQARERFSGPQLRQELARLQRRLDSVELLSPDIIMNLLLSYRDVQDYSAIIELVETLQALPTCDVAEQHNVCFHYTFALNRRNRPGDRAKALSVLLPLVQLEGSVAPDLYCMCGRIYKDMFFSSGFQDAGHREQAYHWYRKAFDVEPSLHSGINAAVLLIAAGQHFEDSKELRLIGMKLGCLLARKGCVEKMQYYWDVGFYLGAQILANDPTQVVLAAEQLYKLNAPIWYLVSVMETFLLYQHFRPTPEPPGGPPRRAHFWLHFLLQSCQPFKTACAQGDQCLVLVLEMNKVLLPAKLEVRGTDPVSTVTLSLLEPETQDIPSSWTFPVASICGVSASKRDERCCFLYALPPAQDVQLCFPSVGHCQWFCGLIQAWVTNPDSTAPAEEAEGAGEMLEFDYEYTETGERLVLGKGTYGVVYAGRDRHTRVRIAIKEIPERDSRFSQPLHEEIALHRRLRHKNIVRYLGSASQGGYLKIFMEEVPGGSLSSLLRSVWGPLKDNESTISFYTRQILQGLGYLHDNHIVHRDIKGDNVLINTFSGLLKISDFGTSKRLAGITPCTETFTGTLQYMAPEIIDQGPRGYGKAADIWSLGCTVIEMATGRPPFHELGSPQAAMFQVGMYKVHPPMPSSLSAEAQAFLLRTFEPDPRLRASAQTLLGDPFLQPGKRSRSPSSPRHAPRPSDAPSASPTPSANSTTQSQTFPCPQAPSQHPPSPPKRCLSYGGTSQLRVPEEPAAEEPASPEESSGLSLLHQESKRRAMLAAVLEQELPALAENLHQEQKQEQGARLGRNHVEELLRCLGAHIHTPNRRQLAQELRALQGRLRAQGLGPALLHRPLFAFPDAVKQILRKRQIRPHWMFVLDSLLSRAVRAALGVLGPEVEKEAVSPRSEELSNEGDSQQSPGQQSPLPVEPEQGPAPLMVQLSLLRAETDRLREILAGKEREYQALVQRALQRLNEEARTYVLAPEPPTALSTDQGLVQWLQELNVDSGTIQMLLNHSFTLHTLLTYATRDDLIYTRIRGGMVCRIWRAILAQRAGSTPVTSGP
Source text: (§1) We assessed the selectivity of members of this scaffold using the KINOMEscan methodology across a near comprehensive panel of 442 kinases [[18,27]].

[2] = biological target: T2, panel of 442 kinases (Homo sapiens, UniProt P42336, E542K); format: binding; conditions: Compound Concentration 10 µM
T2 construct: purchased KINOMEscan
T2 sequence (P42336 whole entry E542K): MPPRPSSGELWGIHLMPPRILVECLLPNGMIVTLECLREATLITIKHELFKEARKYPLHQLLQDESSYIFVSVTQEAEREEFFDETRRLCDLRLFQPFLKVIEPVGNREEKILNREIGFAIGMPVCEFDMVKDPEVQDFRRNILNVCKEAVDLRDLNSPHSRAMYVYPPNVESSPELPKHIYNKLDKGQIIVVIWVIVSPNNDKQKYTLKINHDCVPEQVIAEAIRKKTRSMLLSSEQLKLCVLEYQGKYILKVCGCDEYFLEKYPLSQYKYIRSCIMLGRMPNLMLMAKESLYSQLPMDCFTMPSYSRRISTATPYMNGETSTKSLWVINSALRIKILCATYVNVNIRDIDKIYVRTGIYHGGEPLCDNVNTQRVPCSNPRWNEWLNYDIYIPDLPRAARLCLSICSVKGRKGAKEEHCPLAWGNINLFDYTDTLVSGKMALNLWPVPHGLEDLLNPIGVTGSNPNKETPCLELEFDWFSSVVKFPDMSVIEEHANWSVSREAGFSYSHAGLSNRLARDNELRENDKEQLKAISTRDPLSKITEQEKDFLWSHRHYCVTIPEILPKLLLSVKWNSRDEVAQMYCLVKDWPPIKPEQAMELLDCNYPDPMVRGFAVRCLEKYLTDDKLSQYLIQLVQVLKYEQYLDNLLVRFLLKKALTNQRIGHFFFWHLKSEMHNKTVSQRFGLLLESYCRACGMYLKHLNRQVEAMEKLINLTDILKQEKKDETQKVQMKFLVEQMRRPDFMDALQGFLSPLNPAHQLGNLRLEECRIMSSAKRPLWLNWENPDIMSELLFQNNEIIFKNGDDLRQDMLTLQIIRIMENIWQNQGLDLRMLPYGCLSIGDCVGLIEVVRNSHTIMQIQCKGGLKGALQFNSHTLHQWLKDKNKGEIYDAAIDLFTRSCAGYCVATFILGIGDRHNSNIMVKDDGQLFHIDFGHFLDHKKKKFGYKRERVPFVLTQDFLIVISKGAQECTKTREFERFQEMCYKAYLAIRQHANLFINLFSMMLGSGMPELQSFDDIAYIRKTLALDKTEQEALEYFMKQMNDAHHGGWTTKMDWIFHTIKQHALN
Source text: as §1

SMILES | KINOMEscan: ASK2 [1] | KINOMEscan: PIK3CA(E542K) [2]
COc1cc(C(=O)N2CCC(N3CCN(C)CC3)CC2)ccc1Nc1ncc2c(n1)N(C1CCCC1)c1ccccc1C(=O)N2C [Compound 25, 11-cyclopentyl-2-((2-methoxy-4-(4-(4-methylpiperazin-1-yl)piperidine-1-carbonyl)phenyl)amino)-5-methyl-5H-benzo[e]pyrimido[5,4-b][1,4]diazepin-6(11H)-one] | 100 | 98
CCOc1cc(C(=O)N2CCC(N3CCN(C)CC3)CC2)ccc1Nc1ncc2c(n1)N(C1CCCC1)c1ccccc1C(=O)N2C [Compound 26] | 100 | 100
COc1cc(C(=O)N2CCC(N3CCN(C)CC3)CC2)ccc1Nc1ncc2c(n1)N(C)c1ccccc1C(=O)N2C [15 (LRRK2-IN-1)] | 100 | 77
